According to ChEMBL document CHEMBL1201862, “PubChem BioAssay data set” (2004):
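All cell lines were grown in 96-well plates and treated with compound for 48 hours. GI50 marks 50% less growth.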 Active and inactive are the calls of the source. No stated cut-off is given here; in the data, active = GI50 up to about 1.1 µM and inactive = higher.

Experiments:
Assay in all cases: NCI-60 cell line screen, 48 h
[1] = system: A498
[2] = system: A549
[3] = system: CAKI-1
[4] = system: HCC 2998
[5] = system: KM12
[6] = system: LOX IMVI
[7] = system: MOLT-4
[8] = system: NCI-H522
[9] = system: OVCAR-4
[10] = system: OVCAR-8
[11] = system: SF-295
[12] = system: SK-MEL-28
[13] = system: SK-MEL-5
[14] = system: SK-OV-3
[15] = system: SNB-19
[16] = system: UACC-257
[17] = system: UACC-62
[18] = system: Malme-3M

## c1ccc(C(NC2CCCCC2NCCNC2CCCCC2NC(c2ccccc2)(c2ccccc2)c2ccccc2)(c2ccccc2)c2ccccc2)cc1 (centres undefined)
[1]
  GI50: 22.6 µM (inactive)
[2]
  GI50: 64.1 µM (inactive)
[3]
  GI50: 64.4 µM (inactive)
[4]
  GI50: > 10 µM (inactive)
[5]
  GI50: 57.1 µM (inactive)
[6]
  GI50: 19 µM (inactive)
[7]
  GI50: 47.8 µM (inactive)
[8]
  GI50: 14.6 µM (inactive)
[9]
  GI50: 26.6 µM (inactive)
[10]
  GI50: 29.9 µM (inactive)
[11]
  GI50: > 100 µM (inactive)
[12]
  GI50: > 100 µM (inactive)
[13]
  GI50: 39.5 µM (inactive)
[14]
  GI50: 17.8 µM (inactive)
[15]
  GI50: 74.6 µM (inactive)
[16]
  GI50: > 100 µM (inactive)
[17]
  GI50: 26.2 µM (inactive)

## CN(O)C(=O)c1ccccc1
[2]
  GI50: > 100 µM (inactive)
[3]
  GI50: > 100 µM (inactive)
[4]
  GI50: > 100 µM (inactive)
[5]
  GI50: > 100 µM (inactive)
[6]
  GI50: > 100 µM (inactive)
[7]
  GI50: > 100 µM (inactive)
[18]
  GI50: > 100 µM (inactive)
[8]
  GI50: > 100 µM (inactive)
[9]
  GI50: > 100 µM (inactive)
[10]
  GI50: > 100 µM (inactive)
[11]
  GI50: > 100 µM (inactive)
[12]
  GI50: > 100 µM (inactive)
[13]
  GI50: > 100 µM (inactive)
[14]
  GI50: > 100 µM (inactive)
[15]
  GI50: > 100 µM (inactive)
[16]
  GI50: > 100 µM (inactive)
[17]
  GI50: > 100 µM (inactive)

## CCOC(=O)Oc1c(OC)cc(C(=O)NC2CCc3cc(OC)c(OC)c(OC)c3-c3ccc(SC)c(=O)cc32)cc1OC (centres undefined)
[1]
  GI50: 0.223 µM (active)
[2]
  GI50: 0.428 µM (active)
[4]
  GI50: 0.0473 µM (active)
[5]
  GI50: 0.0378 µM (active)
[6]
  GI50: 0.0466 µM (active)
[7]
  GI50: 0.157 µM (active)
[18]
  GI50: 0.204 µM (active)
[8]
  GI50: < 0.007 µM (active)
[9]
  GI50: 0.789 µM (active)
[10]
  GI50: 0.092 µM (active)
[11]
  GI50: 0.145 µM (active)
[12]
  GI50: 20.7 µM (inactive)
[13]
  GI50: 0.0456 µM (active)
[14]
  GI50: 0.0513 µM (active)
[15]
  GI50: 0.324 µM (active)
[16]
  GI50: 0.0743 µM (active)
[17]
  GI50: 0.0528 µM (active)

## C=C1C2Oc3ccccc3C1N(c1ccccc1)O2 (centres undefined)
[2]
  GI50: 30.4 µM (inactive)
[3]
  GI50: 40.8 µM (inactive)
[4]
  GI50: 31 µM (inactive)
[5]
  GI50: 17.9 µM (inactive)
[6]
  GI50: 13.7 µM (inactive)
[7]
  GI50: 20 µM (inactive)
[18]
  GI50: 46.7 µM (inactive)
[8]
  GI50: 27.2 µM (inactive)
[9]
  GI50: 20 µM (inactive)
[10]
  GI50: 17 µM (inactive)
[11]
  GI50: 23.1 µM (inactive)
[12]
  GI50: 58.1 µM (inactive)
[14]
  GI50: 64.3 µM (inactive)
[15]
  GI50: 49 µM (inactive)
[16]
  GI50: 40.6 µM (inactive)

## CC(C)c1cccc2sc(NC(=O)C(=O)CC(=O)c3ccc(F)cc3)nc12
[1]
  GI50: > 100 µM (inactive)
[2]
  GI50: > 100 µM (inactive)
[3]
  GI50: > 100 µM (inactive)
[5]
  GI50: > 100 µM (inactive)
[6]
  GI50: > 100 µM (inactive)
[18]
  GI50: > 100 µM (inactive)
[8]
  GI50: > 100 µM (inactive)
[9]
  GI50: > 100 µM (inactive)
[10]
  GI50: > 100 µM (inactive)
[11]
  GI50: > 100 µM (inactive)
[12]
  GI50: > 100 µM (inactive)
[13]
  GI50: > 100 µM (inactive)
[14]
  GI50: > 100 µM (inactive)
[15]
  GI50: > 100 µM (inactive)
[16]
  GI50: > 100 µM (inactive)
[17]
  GI50: > 100 µM (inactive)

## CC1(C)OC[C@@H]([C@@]2(COC(c3ccccc3)(c3ccccc3)c3ccccc3)CC=CC(=O)O2)O1
[1]
  GI50: 22 µM (inactive)
[2]
  GI50: 40.7 µM (inactive)
[3]
  GI50: 30.6 µM (inactive)
[4]
  GI50: 19 µM (inactive)
[5]
  GI50: 27.9 µM (inactive)
[6]
  GI50: 32.4 µM (inactive)
[7]
  GI50: 28.3 µM (inactive)
[18]
  GI50: 24.7 µM (inactive)
[8]
  GI50: 18.4 µM (inactive)
[9]
  GI50: 28.2 µM (inactive)
[10]
  GI50: 33.6 µM (inactive)
[11]
  GI50: 36.5 µM (inactive)
[12]
  GI50: 32 µM (inactive)
[14]
  GI50: 38.8 µM (inactive)
[15]
  GI50: 58.3 µM (inactive)
[16]
  GI50: 43.5 µM (inactive)
[17]
  GI50: 28 µM (inactive)
